Data taken from ChEMBL document CHEMBL1201862, “PubChem BioAssay data set” (2004).
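Each compound was tested at five concentrations against cells in 96-well plates for 48 hours. The concentration for 50% growth inhibition is given as GI50.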 The source made the active and inactive calls. Rule as the data show it: active = GI50 up to about 1.1 µM and inactive = higher.

Tests used:
Experiment in all cases: DTP human tumour cell line panel, 48 h
COLO 205 = test system: COLO 205
HOP-92 = test system: HOP-92
SF-539 = test system: SF-539
EKVX = test system: EKVX
UACC-257 = test system: UACC-257
UO-31 = test system: UO-31
Hs-578T = test system: Hs-578T
OVCAR-8 = test system: OVCAR-8
SF-295 = test system: SF-295
HCT-15 = test system: HCT-15
PC-3 = test system: PC-3
OVCAR-3 = test system: OVCAR-3
NCI-H522 = test system: NCI-H522
NCI-H460 = test system: NCI-H460
HT-29 = test system: HT-29
NCI-H23 = test system: NCI-H23
MCF7 = test system: MCF7
ACHN = test system: ACHN
786-0 = test system: 786-0
M14 = test system: M14

SMILES	GI50 (COLO 205)	GI50 (HOP-92)	GI50 (SF-539)	GI50 (EKVX)	GI50 (UACC-257)	GI50 (UO-31)	GI50 (Hs-578T)	GI50 (OVCAR-8)	GI50 (SF-295)	GI50 (HCT-15) [µM]	GI50 (PC-3)	GI50 (OVCAR-3)	GI50 (NCI-H522)	GI50 (NCI-H460)	GI50 (HT-29)	GI50 (NCI-H23)	GI50 (MCF7)	GI50 (ACHN)	GI50 (786-0)	GI50 (M14)
C[S+]([O-])c1ncc2c(n1)-c1ccccc1OC2 (stereo not given)	68.1 µM (inactive)	49.3 µM (inactive)	> 100 µM (inactive)	70.1 µM (inactive)	40.3 µM (inactive)	22.3 µM (inactive)	63.4 µM (inactive)	> 100 µM (inactive)	> 100 µM (inactive)	88.1	> 100 µM (inactive)	56.2 µM (inactive)	> 100 µM (inactive)	> 100 µM (inactive)	61.5 µM (inactive)	> 100 µM (inactive)	38.5 µM (inactive)	92.5 µM (inactive)	> 100 µM (inactive)	> 100 µM (inactive)
COC(=O)c1ccccc1CC(Cc1ccc2c(c1)CCC2)C(=O)OC (stereo not given)	> 100 µM (inactive)	> 100 µM (inactive)	> 100 µM (inactive)	> 100 µM (inactive)	34.6 µM (inactive)	> 100 µM (inactive)	> 100 µM (inactive)	> 100 µM (inactive)	> 100 µM (inactive)	> 100	93.3 µM (inactive)	70 µM (inactive)	66.1 µM (inactive)	> 100 µM (inactive)	50.6 µM (inactive)	> 100 µM (inactive)	> 100 µM (inactive)	> 100 µM (inactive)	> 100 µM (inactive)	> 100 µM (inactive)
C1CSCCCSCCCSCCCSCCCSCCCSCCCSCCCSC1	> 100 µM (inactive)	> 100 µM (inactive)	> 100 µM (inactive)	> 100 µM (inactive)	> 100 µM (inactive)	> 100 µM (inactive)	> 100 µM (inactive)	> 100 µM (inactive)	> 100 µM (inactive)	> 100	> 100 µM (inactive)	> 100 µM (inactive)	> 100 µM (inactive)	> 100 µM (inactive)	> 100 µM (inactive)	> 100 µM (inactive)	> 100 µM (inactive)	> 100 µM (inactive)	> 100 µM (inactive)	> 100 µM (inactive)
S=c1sc2nc(Cl)nc(Cl)c2s1	7.18 µM (inactive)	5.24 µM (inactive)	20.6 µM (inactive)	16.9 µM (inactive)	15.3 µM (inactive)	11.1 µM (inactive)	24 µM (inactive)	9.33 µM (inactive)	16.7 µM (inactive)	13.2	12.4 µM (inactive)	10.3 µM (inactive)	6.84 µM (inactive)	14.2 µM (inactive)	8.24 µM (inactive)	16.9 µM (inactive)	8.49 µM (inactive)	13.9 µM (inactive)	6.21 µM (inactive)	4.16 µM (inactive)
O=C1N/C(=N/N=C\C(O)C(O)C(O)C(O)CO)N/C1=C\c1ccc(Cl)cc1 (stereo not given)	8 µM (inactive)	1.8 µM (inactive)	0.332 µM (active)	12.1 µM (inactive)	14.5 µM (inactive)	44.1 µM (inactive)	2.48 µM (inactive)	1.53 µM (inactive)	9.23 µM (inactive)	> 86.5	5.52 µM (inactive)	2.18 µM (inactive)	2.75 µM (inactive)	15.7 µM (inactive)	17.4 µM (inactive)	5.32 µM (inactive)	4.3 µM (inactive)	21.9 µM (inactive)	5.9 µM (inactive)	3.1 µM (inactive)
COc1cccc(-c2cc(=O)c3ccccc3o2)c1N	9.93 µM (inactive)	> 83.4 µM (inactive)	63.5 µM (inactive)	16.2 µM (inactive)	36.6 µM (inactive)	36.3 µM (inactive)	71.9 µM (inactive)	53 µM (inactive)	> 66.1 µM (inactive)	> 100	> 23.6 µM (inactive)	> 100 µM (inactive)	27.9 µM (inactive)	> 59 µM (inactive)	12.8 µM (inactive)	72.9 µM (inactive)	> 100 µM (inactive)	> 100 µM (inactive)	71 µM (inactive)	5.56 µM (inactive)
O=C(/C=C1\Sc2ccccc2N=C1CC(=O)c1ccccc1)c1ccccc1	10.3 µM (inactive)	3.35 µM (inactive)	13.2 µM (inactive)	6.17 µM (inactive)	97.3 µM (inactive)	8.49 µM (inactive)	44.7 µM (inactive)	3.67 µM (inactive)	3.64 µM (inactive)	2.65	8.22 µM (inactive)	10.7 µM (inactive)	15.8 µM (inactive)	3.89 µM (inactive)	8.49 µM (inactive)	35.6 µM (inactive)	4.19 µM (inactive)	4.39 µM (inactive)	3.51 µM (inactive)	6.14 µM (inactive)
